pIC50: −log10 of the molar value.
Target: T1, DrOTOP1 G130W/E384A (Danio rerio, UniProt Q7ZWK8, E384A/G130W)
T1 construct: A previously generated codon-optimized full-length DrOTOP1[8]; (UniProt: Q7ZWK8) construct; expressed in transfected cells; host or cells: HEK-293 (CRL-1573, ATCC)
T1 sequence (Q7ZWK8 1-586 G130W/E384A): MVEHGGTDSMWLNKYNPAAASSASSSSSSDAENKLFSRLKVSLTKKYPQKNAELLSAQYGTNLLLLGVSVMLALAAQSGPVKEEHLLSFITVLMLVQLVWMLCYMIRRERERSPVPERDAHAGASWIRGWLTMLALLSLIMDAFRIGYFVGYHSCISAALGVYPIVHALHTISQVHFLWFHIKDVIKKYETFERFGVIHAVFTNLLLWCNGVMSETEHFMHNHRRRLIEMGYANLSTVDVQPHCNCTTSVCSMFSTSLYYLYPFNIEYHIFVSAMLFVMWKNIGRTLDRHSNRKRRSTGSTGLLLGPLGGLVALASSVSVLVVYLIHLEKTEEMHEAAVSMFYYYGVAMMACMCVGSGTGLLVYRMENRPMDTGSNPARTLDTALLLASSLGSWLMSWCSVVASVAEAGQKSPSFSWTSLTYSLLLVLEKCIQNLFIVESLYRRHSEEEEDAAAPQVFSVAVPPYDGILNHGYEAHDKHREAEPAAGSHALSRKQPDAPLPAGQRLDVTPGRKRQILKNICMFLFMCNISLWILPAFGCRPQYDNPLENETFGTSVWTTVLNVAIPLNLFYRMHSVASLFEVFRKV
Test: Whole-cell patch-clamp, inhibition of acid-evoked currents, DrOTOP1 G130W/E384A
Format: cell-based, zebrafish (Danio rerio)
Experimental: Given our limited success in identifying mutations of the central site that disrupt antagonism by C2.2, we tested whether mutations of the central site in a background of G130W (the most impactful outer site mutation) might unmask contributions of this site. Thus, we generated and tested double mutants of G130W with E384A, A274W, and A388W. […] We also measured the dose-dependence of inhibition by C2.2 for both G130W/A388W and G130W/E384A (Fig. 5I, J). […] G130W was tested in parallel to confirm that 100 and 300 μM C2.2 produced dose-dependent inhibition.
HEK-293 cells (CRL-1573, ATCC) were cultured in DMEM (Thermofisher 11995073) containing 10% fetal bovine serum (Life Technology 16000044) and Penicillin-Streptomycin (100 I.U./mL) and (100 µg/mL), respectively. Cells were transfected with WT DrOTOP1 or mutant DrOTOP1 channels in 35 mm petri dishes, with ~ 500 ng DNA and 2 μL TransIT-LT1 transfection reagent (Mirus Bio Corporation, Cat # MIR2300) following the manufacturer’s protocol. All constructs were subcloned into a pcDNA3.1 vector that adds an N-terminal fusion tag consisting of an octahistidine tag followed by eGFP, a Gly-Thr-Gly-Thr linker and a 3C protease cleavage site ([…]) followed by WT DrOTOP1, WT mOTOP1, WT hOTOP1, or mutated DrOTOP1. Point mutations were generated via In-Fusion Cloning (Takara) using single-stranded DNA primers generated through IDT and sequence confirmed by Sanger sequencing (GeneWiz).
Whole-cell patch-clamp recording was performed as previously described[6],[22],[25]. Recordings were made with an Axopatch 200B amplifier, digitized with a Digidata 1322a 16-bit data acquisition system, acquired with pClamp 8.2 and analyzed with Clampfit 10 (Molecular Devices). Recordings were sampled at 5 kHz and filtered at 1 kHz. Patch Pipettes with resistance of […] were fabricated from borosilicate glass, and only recordings with a giga-Ohm seal were used in analysis. Membrane potential was held at −80 mV for the duration of recordings. At the beginning of recordings and between, cells were washed with Tyrode’s solution (see below). Once a giga-Ohm seal was reached, cells were lifted and placed in front of microcapillary tubes controlled by a Fast-Step perfusion system (Warner Instruments) so that extracellular solutions could be rapidly exchanged during each experiment.
Standard Tyrode’s solution consisted of 145 mM NaCl, 5 mM KCl, MgCl2, 2 mM CaCl2, 20 mM D-Glucose, and 10 mM HEPES (for pH 7.4). All other extracellular patch-clamp solutions contained 160 mM NMDG-Cl, 2 mM CaCl2, and the following buffers: 10 mM HEPES (for pH 7.4), 10 mM MES (for pH 6.5-5.5), 10 mM CHES for pH 10, and 10 mM HomoPIPES for (pH 5.0). pH adjusted with HCl. […]
All data are presented as mean ± SEM unless otherwise noted, and each data point represents an independent replicant. Inhibition of compounds was quantified as ((I2peak-I1)/(I2peak))*100, where I1 is the current immediately before wash-off and I2peak is the maximum recovered current (Supplementary Fig. 2). Hill coefficients were determined by the following equation: Y = Bmax*X^h/(Kd^h + X^h). Absolute IC50 was determined by the following equation: Fifty = (Top + Baseline)/2 Y = Bottom + (Top-Bottom)/(1 + ((Top-Bottom)/(Fifty-Bottom) − 1)*(AbsoluteIC50/X)^HillSlope). pH50 curves (Fig. 6G inset) were determined using the following equation: Y = Bottom + (Top-Bottom)/(1 + (EC/X)^HillSlope) where EC = EC50 control. […]

SMILES: C=C(C)COc1ccccc1NC(=O)c1nc[nH]c1C [C2.2]
- inhibition at 10 µM (10 µM, DrOTOP1 G130W/E384A, single cells or mean): 3.23%
- inhibition at 300 µM (DrOTOP1 G130W/E384A, saturated by 100 µM, no further inhibition at 300 µM, read-out: Maximal inhibition (saturation)): ~50%
- HillSlope (G130W/E384A, best-fit value): 2.538
- LogAbsoluteIC50 (G130W/E384A, best-fit value): 1.644
- pIC50 (G130W/E384A, best-fit value, Top fitted, Bottom = 0, read-out: AbsoluteIC50): 4.36
